# In patent US20140100156A1 (SANOFI, priority 2012, published 2014):
# What was measured:
# Format in all cases: in vivo
# [1] = test system: female NMRI-mice; test: Automated assessment of feed intake in mice; conditions: 22 hours
# Protocol: Female NMRI-mice of a body weight between 20 and 30 g were used. Mice were adapted to housing conditions for at least one week and for at least one day single-caged in the assessment equipment, when basal data were recorded simultaneously. On the study day, test product was administered subcutaneously close to the lights-off phase (12 h lights off) and assessment of feed consumption was directly started afterwards. Assessment included continued monitoring (every 30 min) over 22 hours. Repetition of this procedure over several days was possible. Restriction of assessment to 22 hours was for practical reasons to allow for reweighing of animals, refilling of feed and water and drug administration between procedures. Results could be assessed as cumulated data over 22 hours or differentiated to 30 min intervals.
# Statistical analyses were performed with Everstat 6.0 by two-way ANOVA on repeated measures and Dunnetts post-hoc analyses. Differences were considered statistically significant at the p<0.05 level.
# Fed female NMRI-mice, weighing on average 25-30 g, were administered 0.01 or 0.1 mg/kg of SEQ ID NO: 97 or phosphate buffered saline (vehicle control) subcutaneously, directly prior to start of feeding monitoring (time=0 h). Lights-off phase (dark phase) started 4 hours later.
# [2] = test system: female diet-induced obese (DIO) C57BL/6NCrl mice; test: Acute effect on blood glucose in fed female diet-induced obese (DIO) C57BL/6NCrl mice
# From the text: Female C57BL/6NCrl mice were housed in groups in a specific pathogen-free barrier facility on a 12-h light/dark cycle with free access to water and high-fat diet. After 10 months on high-fat diet, mice were stratified to treatment groups (n=8), so that each group had similar mean body weight.
# An aged-matched group with ad-libitum access to standard chow was included as standard control group.
# Before the experiment, mice were subcutaneously (s.c.) injected with vehicle solution and weighed for 3 days to acclimate them to the procedures.
# 1) Acute effect on blood glucose in fed DIO mice: initial blood samples were taken just before first administration (s.c.) of vehicle (phosphate buffer solution) or the exendin-4 derivatives at doses of 3, 10, and 100 μg/kg (dissolved in phosphate puffer), respectively. The volume of administration was 5 mL/kg. The animals had access to water and their corresponding diet during the experiment, food consumption was determined at all time points of blood sampling. Blood glucose levels were measured at t=0.5 h, t=1 h, t=2 h, t=4 h, t=6 h, t=8 h, and t=24 h (method: d-glucose hexokinase, hemolysate, AU640 Beckman Coulter). Blood sampling was performed by tail incision without anaesthesia.
# Statistical analyses were performed with Everstat 6.0 by repeated measures two-way ANOVA and Dunnetts post-hoc analyses (glucose profile) and 1-way-ANOVA, followed by Dunnetts post-hoc test (body weight, body fat). Differences versus vehicle-treated DIO control mice were considered statistically significant at the p<0.05 level.
# After blood sampling to determine the blood glucose baseline level, fed diet-induced obese female C57BL/6NCrI mice were administered 3, 10 or 100 μg/kg of SEQ ID NO: 97 or phosphate buffered solution (vehicle control on standard or high-fat diet) subcutaneously. At predefined time points, more blood samples were taken to measure blood glucose and generate the blood glucose profile over 24 h.
# [3] = test system: female leptin-receptor deficient diabetic db/db mice; test: Subchronic effect on blood glucose and HbA1c in female db/db mice
# From the text: Female BKS.Cg-m+/+Leprdb/J (db/db) and BKS.Cg-m+/+Leprdb/+ (lean control) mice were obtained from Charles River Laboratories, Germany, at an age of 9-10 weeks. The animals were housed in groups in a specific pathogen-free barrier facility on a 12-h light/dark cycle with free access to water and rodent-standard chow. After 1 week of acclimatization, blood samples were drawn from the tail without anaesthesia and blood glucose (method: d-glucose hexokinase, hemolysate, AU640 Beckman Coulter) and HbA1c level (method: hemolysate, Cobas6000 c501, Roche Diagnostics, Germany) were determined. […]
# 2) Subchronic effect on blood glucose and HbA1c: all animals were treated once daily s.c. with either vehicle or exendin-4 derivatives at the abovementioned doses for 4 weeks. At the end of the study, blood samples (tail, no anaesthesia) were analyzed for glucose and HbA1c. […]
# Female diabetic mice were treated for 4 weeks once daily subcutaneously with 3, 10 or 100 μg/kg SEQ ID NO: 97 or vehicle. Blood glucose and HbA1c were determined before start of treatment and at the end of the study after 4 weeks of treatment.
# Female diabetic mice were treated for 4 weeks subcutaneously with 50 μg/kg SEQ ID NO: 24 or vehicle twice daily. Blood glucose and HbA1c were determined before start of treatment and at the end of the study after 4 weeks of treatment.
substance,measurement,setting,value
"SEQ ID NO: 97: exendin-4 derivative, K(γE-x53) in position 14 (HXQGTFTSDLSKQKDSRRAQDFIEWLKNGGPSSGAPPPS; K14 side chain γE-x53; Exendin-4-analogue)",reduction of feed intake at the end of the study,[1]; 0.01 mg/kg s.c.,23%
same,reduction of feed intake at the end of the study,[1]; 0.1 mg/kg s.c.,66%
same,duration of decrease in blood glucose compared to DIO control mice,[2]; high dose (100 μg/kg s.c.),> 24 h
same,duration of decrease in blood glucose compared to DIO control mice,[2]; low dose (3 μg/kg s.c.),at least 8 h
same,duration of decrease in blood glucose compared to DIO control mice,[2]; medium dose (10 μg/kg s.c.),at least 8 h
same,blood glucose level versus db control mice at the end of the study,"[3]; 3, 10 or 100 μg/kg s.c. once daily, 4 weeks (all dose groups)",significant lower blood glucose level
same,HbA1c level versus db control mice at the end of the study,"[3]; high dose (100 μg/kg s.c. once daily), 4 weeks",significant lower HbA1c level
